The values below are quoted from earlier work in patent publication US11268059B2, “Apparatuses, systems, and methods for culturing cells” (eXo Cell, LLC, priority 2015, dated 2022).

For series [1], the system named is obese, diabetic yellow KK mice.
In a further series the test system is BAT. The following applies: humans.
The next series has as its system ex vivo human adipocytes. The settings on record: Ang II stimulation.
Series [2] deals with isolated adipocytes and differentiated adipocytes (diffAds).

Regarding `C[C@H](Cc1ccc2c(c1)OC(C(=O)[O-])(C(=O)[O-])O2)NC[C@H](O)c1cccc(Cl)c1.[Na+].[Na+]` [CL-316243], in series [1], the effect on obesity entry was “ameliorated obesity”.
On to `O=S(=O)(Nc1ccc(CCNC[C@H](O)c2cccnc2)cc1)c1ccc(-c2nc(-c3ccc(C(F)(F)F)cc3)cs2)cc1` [L-796568], for which, in the series on obese human males, the anti-obesity effects result is reported as “did not generate notable anti-obesity effects” and the energy expenditure result was “improved energy expenditure”.
`Nc1nc(CC(=O)Nc2ccc(CCNC[C@H](O)c3ccccc3)cc2)cs1` [migrabegron]: in the series on BAT, the BAT activation result is recorded as “activates BAT”.
On to “angiotensin II (DRVYIHPF; Angiotensin-2; UniProt P01019 25-32, looked up) [Ang II, angiotensin II, component of the renin-angiotensin system]”, for which, in the series with ex vivo human adipocytes, the lipolysis result is “inhibited lipolysis”. Also, in series [2], the adipogenesis result is given as “may induce adipogenesis”.
